Publication PMC10799935, “Discovery of a peripheral 5HT2A antagonist as a clinical candidate for metabolic dysfunction-associated steatohepatitis” (Nature Communications, 2024)
Like-named read-outs stand apart in the source and are kept apart here.

How the values were obtained:
[1] = target: T1, 5HT4E (h) (Homo sapiens, UniProt Q13639); experiment: 5HT subtype antagonism assay (Eurofins Cerep): 5HT4E; type: cell-based; details: concentration not given
T1 construct: host or cells: CHO cells
Description: (§1) The derivatives were evaluated at a concentration of 1 μM for their antagonist activity on the 5HT2A receptor (Tables 1–3)[33],[34]. Human 5HT2A stably transfected HEK293 cells (a type of cell derived from kidney embryos)[20] were seeded in a 96-well plate (Costar; 3603) at a density of 9 × 10^4 in 100 μL of minimum essential medium (Welgene; LM007-86) containing 10% dialyzed fetal bovine serum (Gibco; 30067–334) and 1% penicillin/streptomycin (Gibco; 15140-122) and kept in a 37 °C incubator for 24 h. The cells were stained with 100 μL of cytosolic calcium dye using the FLIPR calcium 6 assay solution (Molecular devices, #R8190) supplemented with 2.5 mM probenecid (Sigma; P8761) and incubated for 1 h at 37 °C. After 1 h, the designated amount of the compound was treated in each well and incubated for another 1 h at 37 °C. Then, the cells were loaded in a Flexstation 3 microplate reader (Molecular Devices; FlexStaion) and 50 μL of 5 μM 5HT (serotonin hydrochloride, Sigma; H9523) was injected from a source plate (Nunc 96-well polystyrene conical bottom MicroWell Plate, Thermo; 249662) and the fluorescence intensity (Ex/Em-485nm/ 525 nm) was measured. […]
(§2) Antagonism assay Source Stimulus Incubation Measured Detection Method […]

[2] = target: CYP1A2 (Homo sapiens, UniProt P05177); experiment: in vitro
Sequence of CYP1A2 (P05177 whole entry): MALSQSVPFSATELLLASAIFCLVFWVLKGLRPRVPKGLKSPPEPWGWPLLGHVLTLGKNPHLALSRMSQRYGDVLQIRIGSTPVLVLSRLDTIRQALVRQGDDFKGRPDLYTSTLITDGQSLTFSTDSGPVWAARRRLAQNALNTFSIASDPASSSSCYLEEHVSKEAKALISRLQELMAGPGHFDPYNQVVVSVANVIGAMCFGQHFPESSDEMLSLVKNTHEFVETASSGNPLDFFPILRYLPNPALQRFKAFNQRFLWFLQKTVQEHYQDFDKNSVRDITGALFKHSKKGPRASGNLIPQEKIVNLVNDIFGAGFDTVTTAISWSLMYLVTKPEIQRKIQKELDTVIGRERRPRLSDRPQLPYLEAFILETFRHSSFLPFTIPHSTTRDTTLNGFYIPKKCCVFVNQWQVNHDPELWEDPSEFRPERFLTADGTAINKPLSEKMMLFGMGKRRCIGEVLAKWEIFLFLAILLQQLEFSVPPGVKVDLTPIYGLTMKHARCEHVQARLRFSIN

[3] = male SD rats, oral [^14C]-11c 5 mg/kg
Description: Following blood collection, each anesthetized animal was euthanized by CO2 inhalation and carcasses were submerged in a dry ice/hexane bath. Frozen carcasses were stored at approximately -20 °C until processed for QWBA. Duplicate aliquots of approximately 0.1 g whole blood were weighed into combustion boats for analysis by LSC. Duplicate aliquots of approximately 0.1 mL plasma were weighed into scintillation vials and mixed with an appropriate volume of scintillation cocktail for analysis by LSC. The frozen carcasses were individually set in a mold, submerged in 5% (w/v) low viscosity carboxymethylcellulose (CMC), and embedded by placing the stage (mold) in a dry ice/hexane bath. […] Sagittal, 30-µm thick sections of the CMC-embedded carcasses, including QC standards, and of the CMC-embedded calibration standards were sectioned using a Vibratome 9800 Cryomicrotome (Vibratome; St. Louis, MO) with the temperature maintained at approximately -20 °C. […] The IPs were exposed for approximately 4 days while stored at room temperature in a lead-shielded box to minimize background radiation. Digitized phosphor images (autoradioluminograms) were generated in a dark room with subdued lighting using a GE Healthcare Typhoon 7000 Phosphor Imager (Raytest GmbH; Berlin, Germany) and analyzed using AIDA software (Raytest GmbH).

[4] = target: T2, 5HT1D (Rattus norvegicus, UniProt P28565); experiment: 5HT subtype antagonism assay (Eurofins Cerep): 5HT1D; type: cell-based; details: concentration not given
T2 construct: host or cells: CHO cells
T2 sequence (P28565 whole entry): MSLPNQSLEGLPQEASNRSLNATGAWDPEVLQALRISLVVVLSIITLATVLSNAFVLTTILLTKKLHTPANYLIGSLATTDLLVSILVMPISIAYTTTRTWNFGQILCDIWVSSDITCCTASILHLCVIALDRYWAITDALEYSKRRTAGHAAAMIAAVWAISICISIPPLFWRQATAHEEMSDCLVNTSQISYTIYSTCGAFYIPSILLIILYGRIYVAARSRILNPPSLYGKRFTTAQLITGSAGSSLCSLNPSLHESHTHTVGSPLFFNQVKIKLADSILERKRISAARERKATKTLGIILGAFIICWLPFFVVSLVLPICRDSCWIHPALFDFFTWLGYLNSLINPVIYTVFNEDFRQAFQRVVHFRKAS
Description: as §1, §2

T1 sequence (Q13639 1-378 isoform Q13639-5): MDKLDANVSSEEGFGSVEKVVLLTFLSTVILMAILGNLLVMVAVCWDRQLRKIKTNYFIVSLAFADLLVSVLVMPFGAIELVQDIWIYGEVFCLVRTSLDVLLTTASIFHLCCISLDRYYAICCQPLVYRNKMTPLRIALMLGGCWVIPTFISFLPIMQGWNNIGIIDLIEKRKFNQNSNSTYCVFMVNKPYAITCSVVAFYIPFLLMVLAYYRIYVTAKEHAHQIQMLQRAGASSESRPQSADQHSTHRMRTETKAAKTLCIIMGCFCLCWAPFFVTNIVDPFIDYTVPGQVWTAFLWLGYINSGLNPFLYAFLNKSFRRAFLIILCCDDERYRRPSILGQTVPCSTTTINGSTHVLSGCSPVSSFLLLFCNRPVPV

Cc1nc2n(c(=O)c1CCN1CCC(=C3c4ccc(Cl)cc4CCc4cccnc43)CC1)CCCC2O (centres unmarked) [Compound 11c]
Selectivity 4E: % inhibition [1]: -3% | inhibition at 10 µM [2]: < 1% | AUC0-t (ng equiv./g) ([3]; Adrenal gland): 7210 ng equiv./g | Cmax (ng equiv./g) ([3]; Adrenal gland): 1510 ng equiv./g | Tissue: plasma ratio based on AUC0-t ([3]; Adrenal gland): 9.21 | Tmax ([3]; Adrenal gland): 6 h | Cmax (ng equiv./g) ([3]; Brain, BQL = below the lower limit of quantitation 148 ng equiv./g): BQL | Cmax (ng equiv./g) ([3]; Brain, BQL = below the lower limit of quantitation 148 ng equiv./g, listed as [^14C]-compound 11c): below the lower limit of quantitation | AUC0-t (ng equiv./g) ([3]; Heart): 1800 ng equiv./g | Cmax (ng equiv./g) ([3]; Heart): 369 ng equiv./g | Tissue: plasma ratio based on AUC0-t ([3]; Heart): 2.30 | Tmax ([3]; Heart): 6 h | AUC0-t (ng equiv./g) ([3]; Kidney): 7860 ng equiv./g | Cmax (ng equiv./g) ([3]; Kidney): 1840 ng equiv./g | Tissue: plasma ratio based on AUC0-t ([3]; Kidney): 10.0 | Tmax ([3]; Kidney): 6 h | AUC0-t (ng equiv./g) ([3]; Large Intestine): 127000 ng equiv./g | Cmax (ng equiv./g) ([3]; Large Intestine): 9800 ng equiv./g | Tissue: plasma ratio based on AUC0-t ([3]; Large Intestine): 162 | Tmax ([3]; Large Intestine): 6 h | AUC0-t (ng equiv./g) ([3]; Liver): 15400 ng equiv./g | Cmax (ng equiv./g) ([3]; Liver): 2920 ng equiv./g | Tissue: plasma ratio based on AUC0-t ([3]; Liver): 19.7 | Tmax ([3]; Liver): 6 h | AUC0-t (ng equiv./g) ([3]; Lung): 4290 ng equiv./g | Cmax (ng equiv./g) ([3]; Lung): 941 ng equiv./g | Tissue: plasma ratio based on AUC0-t ([3]; Lung): 5.48 | Tmax ([3]; Lung): 6 h | AUC0-t (ng equiv./g) ([3]; Pancreas): 15400 ng equiv./g | Cmax (ng equiv./g) ([3]; Pancreas): 4330 ng equiv./g | Tissue: plasma ratio based on AUC0-t ([3]; Pancreas): 19.7 | Tmax ([3]; Pancreas): 6 h | AUC0-t (ng equiv./g) ([3]; Plasma): 783 ng equiv./g | Cmax (ng equiv./g) ([3]; Plasma): 225 ng equiv./g | Tissue: plasma ratio based on AUC0-t ([3]; Plasma): 1.00 | Tmax ([3]; Plasma): 0.5 h | AUC0-t (ng equiv./g) ([3]; Small Intestine): 16600 ng equiv./g | Cmax (ng equiv./g) ([3]; Small Intestine): 45000 ng equiv./g | Tissue: plasma ratio based on AUC0-t ([3]; Small Intestine): 21.2 | Tmax ([3]; Small Intestine): 0.25 h | AUC0-t (ng equiv./g) ([3]; Spleen): 9520 ng equiv./g | Cmax (ng equiv./g) ([3]; Spleen): 2290 ng equiv./g | Tissue: plasma ratio based on AUC0-t ([3]; Spleen): 12.2 | Tmax ([3]; Spleen): 6 h | AUC0-t (ng equiv./g) ([3]; Stomach): 5130 ng equiv./g | Cmax (ng equiv./g) ([3]; Stomach): 3240 ng equiv./g | Tissue: plasma ratio based on AUC0-t ([3]; Stomach): 6.55 | Tmax ([3]; Stomach): 0.25 h | AUC0-t (ng equiv./g) ([3]; Whole Blood): 589 ng equiv./g | Cmax (ng equiv./g) ([3]; Whole Blood): 158 ng equiv./g | Tissue: plasma ratio based on AUC0-t ([3]; Whole Blood): 0.75 | Tmax ([3]; Whole Blood): 0.5 h | Selectivity 1D: % inhibition [4]: 3%
